Here are results for six compounds from ChEMBL document CHEMBL1142732, “In-depth study of tripeptide-based alpha-ketoheterocycles as inhibitors of thrombin. Effective utilization of the S1' subsite and its implications to structure-based drug design” (J Med Chem, 2005).

Data set [1] has as its target T1, Serine protease 1 (Bos taurus, UniProt P00760).
T1 sequence (P00760 whole entry): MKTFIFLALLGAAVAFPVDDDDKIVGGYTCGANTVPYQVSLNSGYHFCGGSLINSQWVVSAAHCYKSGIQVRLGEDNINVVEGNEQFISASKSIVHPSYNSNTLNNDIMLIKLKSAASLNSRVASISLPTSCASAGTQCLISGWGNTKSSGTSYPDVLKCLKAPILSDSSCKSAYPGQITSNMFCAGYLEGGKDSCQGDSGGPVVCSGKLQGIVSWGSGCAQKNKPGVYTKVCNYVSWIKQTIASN
Nature of the data set: Binding affinity against bovine trypsin.

Data set [2] addresses T2, Prothrombin (Homo sapiens, UniProt P00734). The experiment in a line: Binding affinity against human alpha thrombin; SB = slow-binding kinetics.
Another data set deals with Canis familiaris. The experiment in a line: In vivo effective intravenous dose for that reduces thrombus weight accumulation on a silk fiber by 50% was determined in Dog arteriovenous shunt model. Type of data set: functional. To be noted: Canis lupus familiaris.
The species named for data set [3] is Homo sapiens. The experiment in a line: Inhibitory concentration of the compound was determined against gel filtered platelet aggregation induced by alpha thrombin. Format: functional.
Data set [4] in a line: Half life was determined in rat after an intravenous dose of 1 mg/kg. Format: ADME, organism-based. On the set-up: dose 1 mg/kg, route intravenous. To be noted: in vivo.
Data set [5] can be described thus: Oral half life was determined in conscious rat after 10 mg/kg dosage through gavage. Type of data set: ADME, organism-based. Set-up: dose 10 mg/kg. Particulars: in vivo.
The nature of data set [6]: Oral bioavailability was determined in conscious rat after 10 mg/kg dosage through gavage. To be noted: in vivo. Type of data set: ADME, organism-based.
For data set [7], the species on record is Cavia porcellus. Nature of the data set: animal or person. Particulars: Blood, iv.
Description: In vivo effective intravenous dose for eliciting a 25% decrease in blood pressure in anesthetized Guinea pig
For data set [8], the system named is Cavia porcellus. Nature of the data set: Percent change in blood pressure in guinea pig at 10 mg/kg dose.
The test system of a further data set is Oryctolagus cuniculus. Nature of the data set: In vivo effective intravenous dose for that was determined in Rabbit deep vein thrombosis model.
For data set [9], the target named is T1, Serine protease 1. Nature of the data set: Inhibitory concentration against bovine trypsin; Not determined.
For data set [10], the target named is T2, Prothrombin. The experiment in a line: Inhibitory concentration against human alpha thrombin.
Data set [11] is filed under the species Homo sapiens. The experiment in a line: Inhibitory concentration against gel filtered platelet aggregation induced by alpha thrombin. Format: functional.
In data set [12] the target is T2, Prothrombin. Nature of the data set: Inhibition constant against human alpha thrombin.
The target of data set [13] is T2, Prothrombin. Nature of the data set: Binding affinity determined against human alpha thrombin.
Data set [14] has as its system Cavia porcellus. Nature of the data set: Percent change in blood pressure in guinea pig at 20 mg/kg dose.
The test system of data set [15] is Cavia porcellus. Nature of the data set: Cardiovascular safety ratio ratiod (ED-25:ED50) estimation, which is based on a comparison of the hypotensive response in anesthetized guinea pigs to the anticoagulant / antithrombotic response in dogs. Type of data set: functional.
In data set [16] the test system is Cavia porcellus. Nature of the data set: Cardiovascular safety ratio ratiod (ED-25:ED50) estimation, which is based on a comparison of the hypotensive response in anesthetized guinea pigs to the anticoagulant / antithrombotic response in rabbit. Format: functional.
The target in data set [17] is T1, Serine protease 1. The experiment in a line: Inhibitory concentration against bovine trypsin; NT=Not determined.

In the case of `NC(N)=NCCCC(NC(=O)[C@@H]1CCCN1C(=O)[C@H](N)Cc1ccccc1)C(=O)c1nc2ccccc2s1` (stereo not given in full), the results for the Ki at Serine protease 1 [1] and on Prothrombin [2] were 0.3 nM and “Slow Binding”, respectively.
In the case of `CN[C@H](Cc1ccccc1)C(=O)N1CCC[C@H]1C(=O)NC(CCCN=C(N)N)C(=O)c1nc2ccc(C(=O)O)cc2s1` (stereo not given in full), the Ki (usually the equilibrium dissociation constant of an inhibitor or competing ligand from its target) at Serine protease 1 [1] is 2.7 nM. Also, the ED50 (as a rule, the midpoint of the dose-response relation) was found to be 0.14 mg/kg in the data set on Canis familiaris and 0.43 mg/kg with Oryctolagus cuniculus. In the data set listed under Homo sapiens [3], the midpoint of inhibition, the IC50, lay at 41 nM. Moreover, the half-life (as a rule, the time in which the quantity being followed falls by half) in [4] was determined as 25 min; in data set [5], 60 min. In addition, the bioavailability (commonly dose-corrected exposure relative to a reference, in per cent) in data set [6] was determined as 3%. This compound also showed an ED25 in the data set listed under Cavia porcellus [7] of 13 mg/kg. In addition, in the data set on Cavia porcellus [8], the “Delta BP” value is listed as -32%.
With `CN[C@H](Cc1ccccc1)C(=O)N1CCC[C@H]1C(=O)N[C@H](CCCN=C(N)N)Cc1nc2ccccc2s1`, the IC50 (usually the midpoint of a concentration-inhibition curve) at Serine protease 1 [9] came out at 30000 nM. That is a double-digit micromolar value.
Consider `N=C(N)NCCC[C@H](NC(=O)[C@@H]1CCCN1C(=O)[C@H](CO)NS(=O)(=O)c1cccc2ccccc12)C(=O)c1nc2ccccc2s1`, for which the Ki at Serine protease 1 [1] came out at 2.9 nM; at Prothrombin [12], 10 nM; on Prothrombin [13] it was 0.78 nM. For the same compound, the results for the IC50 against Prothrombin [10] and in the data set listed under Homo sapiens [11] were 110 nM and 34 nM, respectively. Also, the “Delta BP” value with Cavia porcellus [14] is given as -30%.
Turning to `CN[C@H](Cc1ccccc1)C(=O)N1CCC[C@H]1C(=O)N[C@H](C=O)CCCNC(=N)N` (stereo in doubt; 1b), the Ratio in the data set on Cavia porcellus [15] is 43; with Cavia porcellus [16] it was 136. For the same compound, the Ki came to 9.1 nM on Serine protease 1 [1], 18 nM at Prothrombin [12] and 18 nM on Prothrombin [13]. Besides, the IC50 on Prothrombin [10] came to 85 nM; in the data set filed under Homo sapiens [11], 83 nM. Further, the results for the ED50 in the data set on Canis familiaris and in the data set on Oryctolagus cuniculus were 0.66 mg/kg and 0.21 mg/kg, respectively. Moreover, in the data set filed under Cavia porcellus [7], the ED25 was 28.6 mg/kg. Moreover, the “Delta BP” value in the data set with Cavia porcellus [8] is -21%.
For the compound `CN[C@H](Cc1ccccc1)C(=O)N1CCC[C@H]1C(=O)N[C@@H](CCCN=C(N)N)Cc1nc2ccccc2s1`, on Serine protease 1 [17], the concentration for half-maximal inhibition (IC50) was found to be 32000 nM.
